# Source: patent US20240115745A1, “COMPOUNDS COMPRISING A FIBROBLAST ACTIVATION PROTEIN LIGAND AND USE THEREOF” (3B PHARMACEUTICALS GMBH, priority 2021, published 2024)
# Where two headings read alike, the source gives them in different places. *1 amine or outer side, *2 acyl side, *3 side chain or, on linkers, in order; H or OH if unused. Where a SMILES comes first, the peptide text is derived from it. Bridges are numbered along the chain shown (N, C = ends). [ ]: non-standard residue; d: D form. The star is where a group is joined. X11 = O=C(O)CN1CCN(CC(=O)O)CCN([C@H](CCC(=O)*)C(=O)O)CC1; X2 = O=C1NC(=O)C([*:3])=C1CC[C@H](N[*:1])C(=O)[*:2]; X3 = NCCNCC(CNCCN)C(=O)*; Hexanoyl = CCCCCC(=O)*
# Legend:
# [1] = biological target: T1, FAP-expressing human WI-38 fibroblasts (Homo sapiens, UniProt Q12884); test: Competitive FACS binding assay;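 also: flow cytometry read-out of median Cy5 fluorescence on the cells, plotted versus test compound concentration, with IC50 derived by four-parameter logistic curve fitting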
# T1 construct: FAP-expressing human WI-38 fibroblasts (ECACC) were cultured in EMEM; host or cells: WI-38 human fibroblasts
# Recombinant human FAP = biological target: T2, Recombinant human FAP (Homo sapiens, UniProt Q12884); test: FRET-based FAP protease activity assay; type: biochemical
# T2 construct: purchased R&D systems 3715-SE
# [2] = competition with 3 nM Cy5-labeled compound, WI-38 fibroblasts, 4° C., 1 hour, read-out: pIC50 Category (FACS) (converted)
# [3] = recombinant human FAP, FRET-peptide substrate, 37° C., read-out: pIC50 Category (Activity) (converted)
# T2 sequence (Q12884 26-760 limits assumed): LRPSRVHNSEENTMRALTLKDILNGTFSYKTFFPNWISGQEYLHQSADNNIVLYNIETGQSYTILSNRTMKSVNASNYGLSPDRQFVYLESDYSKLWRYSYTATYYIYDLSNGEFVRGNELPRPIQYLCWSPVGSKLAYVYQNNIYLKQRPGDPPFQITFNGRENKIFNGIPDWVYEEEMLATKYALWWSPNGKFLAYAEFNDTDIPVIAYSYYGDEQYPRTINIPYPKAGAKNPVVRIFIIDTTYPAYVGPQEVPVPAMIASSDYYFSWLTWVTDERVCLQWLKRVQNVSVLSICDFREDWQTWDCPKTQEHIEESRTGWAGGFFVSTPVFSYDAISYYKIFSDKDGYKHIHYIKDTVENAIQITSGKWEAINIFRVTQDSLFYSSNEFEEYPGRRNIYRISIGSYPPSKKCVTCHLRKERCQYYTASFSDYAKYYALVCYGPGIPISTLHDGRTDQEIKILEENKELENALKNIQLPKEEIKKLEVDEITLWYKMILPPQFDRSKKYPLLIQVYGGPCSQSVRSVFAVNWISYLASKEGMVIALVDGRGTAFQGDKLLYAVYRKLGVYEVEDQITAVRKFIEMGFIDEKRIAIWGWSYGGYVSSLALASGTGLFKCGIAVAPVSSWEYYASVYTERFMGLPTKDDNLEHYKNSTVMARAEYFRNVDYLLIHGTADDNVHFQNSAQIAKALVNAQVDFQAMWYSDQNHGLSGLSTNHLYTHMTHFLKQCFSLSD
# T1 sequence (Q12884 whole entry): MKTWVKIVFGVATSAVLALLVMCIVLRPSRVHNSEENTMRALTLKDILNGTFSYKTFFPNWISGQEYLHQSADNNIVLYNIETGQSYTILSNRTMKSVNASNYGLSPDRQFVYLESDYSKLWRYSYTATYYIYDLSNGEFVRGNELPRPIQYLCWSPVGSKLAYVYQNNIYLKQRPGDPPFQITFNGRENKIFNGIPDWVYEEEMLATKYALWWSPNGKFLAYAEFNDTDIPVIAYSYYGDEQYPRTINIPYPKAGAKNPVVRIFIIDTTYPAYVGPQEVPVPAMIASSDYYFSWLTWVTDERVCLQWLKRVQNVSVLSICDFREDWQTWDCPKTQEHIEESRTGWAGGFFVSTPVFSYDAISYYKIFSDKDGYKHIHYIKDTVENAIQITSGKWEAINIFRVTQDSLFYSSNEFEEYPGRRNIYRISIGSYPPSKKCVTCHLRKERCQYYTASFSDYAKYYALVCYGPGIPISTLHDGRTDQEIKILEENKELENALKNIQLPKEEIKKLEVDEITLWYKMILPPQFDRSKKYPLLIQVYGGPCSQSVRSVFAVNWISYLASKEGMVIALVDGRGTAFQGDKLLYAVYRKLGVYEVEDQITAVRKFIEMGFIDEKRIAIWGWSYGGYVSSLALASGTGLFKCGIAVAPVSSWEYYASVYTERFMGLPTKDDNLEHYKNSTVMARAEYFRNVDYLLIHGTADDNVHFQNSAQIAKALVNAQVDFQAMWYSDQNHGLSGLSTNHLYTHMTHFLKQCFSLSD
"IC50 [1, 2]",IC50 (Recombinant human FAP; [3]),SMILES,IC50 [1],IC50 (Recombinant human FAP)
–,–,"CCCCCC(=O)N[C@H]1CSC2=C(SC[C@@H](C(=O)N[C@@H](CC(=O)O)C(N)=O)NC(=O)[C@H](Cc3ccccc3)NC(=O)[C@H](CCC(N)=O)NC(=O)[C@H]([C@@H](C)O)NC(=O)[C@@H]3CCCN3C(=O)[C@@H]3CCCN3C1=O)C(=O)N(CCCOCCOCCOCCCNC(=O)CN1CCN(CC(=O)O)CCN(CC(=O)O)CCN(CC(=O)O)CC1)C2=O [Compound 2017, Hex-[Cys(mli(DOTA-Ttd))-Pro-Pro-Thr-Gln-Phe-Cys]-Asp-NH2] (HELM PEPTIDE1{[CCCCCC(=O)[*:2]].C.P.P.T.Q.F.C.D.[am]}|CHEM1{[O=C(O)CN1CCN(CC(=O)O)CCN(CC(=O)NCCCOCCOCCOCCCN2C(=O)C([*:1])=C([*:2])C2=O)CCN(CC(=O)O)CC1]}$PEPTIDE1,CHEM1,2:R3-1:R1|PEPTIDE1,CHEM1,8:R3-1:R2$$$V2.0)",< 0.1 µM,< 0.1 µM
–,–,"CCCCCC(=O)N[C@H]1CSC2=C(SC[C@@H](C(=O)N[C@@H](CC(=O)O)C(N)=O)NC(=O)[C@H](Cc3ccccc3)NC(=O)[C@H](CCC(N)=O)NC(=O)[C@H]([C@@H](C)O)NC(=O)[C@@H]3CCCN3C(=O)[C@@H]3CCCN3C1=O)C(=O)N(CCCC(=O)CN1CCN(CC(=O)O)CCN(CC(=O)O)CCN(CC(=O)O)CC1)C2=O [Compound 2018, Hex-[Cys(mli(DOTA-Eda))-Pro-Pro-Thr-Gln-Phe-Cys]-Asp-NH2] (HELM PEPTIDE1{[CCCCCC(=O)[*:2]].C.P.P.T.Q.F.C.D.[am]}|CHEM1{[O=C(O)CN1CCN(CC(=O)O)CCN(CC(=O)CCCN2C(=O)C([*:1])=C([*:2])C2=O)CCN(CC(=O)O)CC1]}$PEPTIDE1,CHEM1,2:R3-1:R1|PEPTIDE1,CHEM1,8:R3-1:R2$$$V2.0)",< 0.1 µM,< 0.1 µM
< 0.1 µM,< 0.1 µM,"CCCCCC(=O)N[C@H]1CSC2=C(SC[C@@H](C(=O)O)NC(=O)[C@H](Cc3ccccc3)NC(=O)[C@H](CCC(N)=O)NC(=O)[C@H]([C@@H](C)O)NC(=O)[C@@H]3CCCN3C(=O)[C@@H]3CCCN3C1=O)C(=O)N(CCCOCCOCCOCCCNC(=O)CN1CCN(CC(=O)O)CCN(CC(=O)O)CCN(CC(=O)O)CC1)C2=O [Compound 2019, Hex-[Cys(mli(DOTA-Ttd))-Pro-Pro-Thr-Gln-Phe-Cys]-OH]",–,–
< 0.1 µM,< 0.1 µM,"CCCC[C@H](NC(=O)CCC(=O)NCCCOCCOCCOCCCNC(=O)CC[C@H](C(=O)O)N1CCN(CC(=O)O)CCN(CC(=O)O)CC1)C(=O)N[C@H]1CSC2=C(SC[C@@H](C(=O)NCCC(=O)O)NC(=O)[C@H](Cc3ccccc3)NC(=O)[C@H](CCC(N)=O)NC(=O)[C@H]([C@@H](C)O)NC(=O)[C@@H]3CCCN3C(=O)[C@@H]3CCCN3C1=O)C(=O)NC2=O [Compound 2021, NODAGA-Ttds-Nle-[Cys(mli)-Pro-Pro-Thr-Gln-Phe-Cys]-Bal-OH]",–,–
< 0.1 µM,< 0.1 µM,"CCCC[C@H](NC(=O)CCC(=O)NCCCOCCOCCOCCCNC(=O)C(CNCCN)CNCCN)C(=O)N[C@H]1CSC2=C(SC[C@@H](C(=O)NCCC(=O)O)NC(=O)[C@H](Cc3ccccc3)NC(=O)[C@H](CCC(N)=O)NC(=O)[C@H]([C@@H](C)O)NC(=O)[C@@H]3CCCN3C(=O)[C@@H]3CCCN3C1=O)C(=O)NC2=O [Compound 2022, N4Ac-Ttds-Nle-[Cys(mli)-Pro-Pro-Thr-Gln-Phe-Cys]-Bal-OH]",–,–
< 0.1 µM,< 0.1 µM,"CCCCCC(=O)N[C@H]1CSC2=C(CC[C@@H](C(=O)N[C@@H](CC(=O)O)C(=O)N[C@@H](CCCCNC(=O)CC[C@H](C(=O)O)N3CCN(CC(=O)O)CCN(CC(=O)O)CC3)C(N)=O)NC(=O)[C@H](Cc3ccccc3)NC(=O)[C@H](CCC(N)=O)NC(=O)[C@H]([C@@H](C)O)NC(=O)[C@@H]3CCCN3C(=O)[C@@H]3CCCN3C1=O)C(=O)NC2=O [Compound 2023, Hex-[Cys(mli)-Pro-Pro-Thr-Gln-Phe-Cys]-Asp-Lys(NODAGA)-NH2] (Hexanoyl-CPPTQF[X2]DK(X11)-NH2; thioether 1-7)",–,–
< 0.1 µM,< 0.1 µM,"CCCCCC(=O)N[C@H]1CSC2=C(CC[C@@H](C(=O)N[C@@H](CC(=O)O)C(=O)N[C@@H](CCCCNC(=O)C(CNCCN)CNCCN)C(N)=O)NC(=O)[C@H](Cc3ccccc3)NC(=O)[C@H](CCC(N)=O)NC(=O)[C@H]([C@@H](C)O)NC(=O)[C@@H]3CCCN3C(=O)[C@@H]3CCCN3C1=O)C(=O)NC2=O [Compound 2024, Hex-[Cys(mli)-Pro-Pro-Thr-Gln-Phe-Cys]-Asp-Lys(N4Ac)-NH2] (Hexanoyl-CPPTQF[X2]DK(X3)-NH2; thioether 1-7)",–,–
–,–,"CCCCCC(=O)N[C@H]1CSC2=C(SC[C@@H](C(=O)N[C@@H](CC(=O)O)C(N)=O)NC(=O)[C@H](Cc3ccccc3)NC(=O)[C@H](CCC(N)=O)NC(=O)[C@H]([C@@H](C)O)NC(=O)[C@@H]3CCCN3C(=O)[C@@H]3CCCN3C1=O)C(=O)N(CCCOCCOCCOCCCNC(=O)C(CNCCN)CNCCN)C2=O [Compound 2026, Hex-[Cys(mli(N4Ac-Ttd))-Pro-Pro-Thr-Gln-Phe-Cys]-Asp-NH2] (HELM PEPTIDE1{[CCCCCC(=O)[*:2]].C.P.P.T.Q.F.C.D.[am]}|CHEM1{[NCCNCC(CNCCN)C(=O)NCCCOCCOCCOCCCN1C(=O)C([*:1])=C([*:2])C1=O]}$PEPTIDE1,CHEM1,2:R3-1:R1|PEPTIDE1,CHEM1,8:R3-1:R2$$$V2.0)",< 0.1 µM,< 0.1 µM

SMILES,"IC50 [1, 2]",IC50 (Recombinant human FAP; [3]),IC50 [1],IC50 (Recombinant human FAP)
"CCCCCC(=O)N[C@H]1CSC2=C(SC[C@@H](C(=O)N[C@@H](CC(=O)O)C(N)=O)NC(=O)[C@H](Cc3ccccc3)NC(=O)[C@H](CCC(=O)O)NC(=O)[C@H]([C@@H](C)O)NC(=O)[C@@H]3CCCN3C(=O)[C@@H]3CCCN3C1=O)C(=O)N(CCCOCCOCCOCCCNC(=O)CN1CCN(CC(=O)O)CCN(CC(=O)O)CCN(CC(=O)O)CC1)C2=O [Compound 2020, Hex-[Cys(mli(DOTA-Ttd))-Pro-Pro-Thr-Glu-Phe-Cys]-Asp-NH2] (HELM PEPTIDE1{[CCCCCC(=O)[*:2]].C.P.P.T.E.F.C.D.[am]}|CHEM1{[O=C(O)CN1CCN(CC(=O)O)CCN(CC(=O)NCCCOCCOCCOCCCN2C(=O)C([*:1])=C([*:2])C2=O)CCN(CC(=O)O)CC1]}$PEPTIDE1,CHEM1,2:R3-1:R1|PEPTIDE1,CHEM1,8:R3-1:R2$$$V2.0)",< 0.1 µM,< 0.1 µM,–,–
